Data on 19 compounds can be found in patent US20260250290A1 (BRISTOL-MYERS SQUIBB COMPANY, priority 2023, published 2026).

Structures can show the parent of a compound that is named as a salt.

The assay concerns the target T1, SGK1 (Homo sapiens, UniProt O00141).
T1 sequence (O00141 1-431): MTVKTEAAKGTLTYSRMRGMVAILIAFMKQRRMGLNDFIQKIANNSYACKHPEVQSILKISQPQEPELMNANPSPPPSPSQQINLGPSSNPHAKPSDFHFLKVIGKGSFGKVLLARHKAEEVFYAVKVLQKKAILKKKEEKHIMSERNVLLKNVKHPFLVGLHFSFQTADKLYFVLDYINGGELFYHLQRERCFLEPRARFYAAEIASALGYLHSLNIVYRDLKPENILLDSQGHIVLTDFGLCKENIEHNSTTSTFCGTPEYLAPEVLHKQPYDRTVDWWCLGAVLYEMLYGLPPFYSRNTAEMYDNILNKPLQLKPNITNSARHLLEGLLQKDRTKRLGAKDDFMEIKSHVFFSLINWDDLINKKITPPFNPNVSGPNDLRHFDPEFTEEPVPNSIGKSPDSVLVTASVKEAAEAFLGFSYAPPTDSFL
Nature of the assay: SGK1 inhibition Assay B (Echo mass spectrometry of phosphorylated peptide product). Format: biochemical. Particulars: 60 min at room temperature.

Protocol: 20 μl of 2 nM SGK1 were added in 20 mM Hepes+10 mM MgCl2+0015% Brij-35+4 mM DTT+0.05 mg/ml BSA and the reaction incubated for 60 min at room temperature. The enzymatic reaction was quenched by addition 10 μl of 1% Formic Acid+150 nM Internal Standard: FITC-(Ahx)KKRNRR(pS)VA^—OH (final concentration). The plates are spun down at 3700 RPM for 10 minutes to remove all precipitate. Samples were loaded on to the Sciex Echo Mass Spec attached to a Sciex 6500 equipped with ESI and was used to analyze the phosphorylated peptide product. MRM transition of product and internal standard were monitored at m/z 755 to 937.5 and m/z 757.7 to 941.3 respectively. Peak area of analyte was normalized with internal standard.
Dose response curves were generated to determine the concentration required for inhibiting 50% of the enzyme activity. Compounds were dissolved at 10 mM in dimethylsulfoxide (DMSO) and evaluated at eleven concentrations.

For the compound `CC(=O)N1CC=C(c2cc(N3CCC[C@@H](NC(=O)c4cc5[nH]ccc5s4)C3)c3c(N)ncnn23)C1` [Example 923, (R)—N-(1-(7-(1-acetyl-2,5-dihydro-1H-pyrrol-3-yl)-4-aminopyrrolo[2,1-f][1,2,4]triazin-5-yl)piperidin-3-yl)-4H-thieno[3,2-b]pyrrole-2-carboxamide], the IC50 amounted to 1 nM.
For `CN1[C@@H]2CC[C@H]1C[C@H](Oc1cc(Cl)sc1C(=O)N[C@@H]1CCCN(c3cc(-c4ccc5c(c4)COC5=O)n4ncnc(N)c34)C1)C2` [Example 924, N—((R)-1-(4-amino-7-(1-oxo-1,3-dihydroisobenzofuran-5-yl)pyrrolo[2,1-f][1,2,4]triazin-5-yl)piperidin-3-yl)-5-chloro-3-(((1R,3s,5S)-8-methyl-8-azabicyclo[3.2.1]octan-3-yl)oxy)thiophene-2-carboxamide], the IC50 was found to be 0.9 nM.
Consider `CN1[C@@H]2CC[C@H]1C[C@H](Oc1cc(Cl)sc1C(=O)N[C@@H]1C[C@@H](F)CN(c3cc(-c4ccc(-n5cnnn5)c(F)c4)n4ncnc(N)c34)C1)C2` [Example 925, N-((3R,5R)-1-(4-amino-7-(3-fluoro-4-(1H-tetrazol-1-yl)phenyl)pyrrolo[2,1-f][1,2,4]triazin-5-yl)-5-fluoropiperidin-3-yl)-5-chloro-3-(((1R,3s,5S)-8-methyl-8-azabicyclo[3.2.1]octan-3-yl)oxy)thiophene-2-carboxamide, TFA salt], for which the IC50 was found to be 0.4 nM.
`CN1[C@@H]2CC[C@H]1C[C@H](Oc1cc(Cl)sc1C(=O)N[C@@H]1CCCN(c3cc(C4=CCOC4)n4ncnc(N)c34)C1)C2` [Example 926, N—((R)-1-(4-amino-7-(2,5-dihydrofuran-3-yl)pyrrolo[2,1-f][1,2,4]triazin-5-yl)piperidin-3-yl)-5-chloro-3-(((1R,3s,5S)-8-methyl-8-azabicyclo[3.2.1]octan-3-yl)oxy)thiophene-2-carboxamide, TFA salt] yielded an IC50 of 0.8 nM.
For `CN1[C@@H]2CC[C@H]1C[C@H](Oc1cc(Cl)sc1C(=O)N[C@@H]1CCCN(c3cc(C4=CC(=O)OC4)n4ncnc(N)c34)C1)C2` [Example 927, N—((R)-1-(4-amino-7-(5-oxo-2,5-dihydrofuran-3-yl)pyrrolo[2,1-f][1,2,4]triazin-5-yl)piperidin-3-yl)-5-chloro-3-(((1R,3s,5S)-8-methyl-8-azabicyclo[3.2.1]octan-3-yl)oxy)thiophene-2-carboxamide, TFA salt] the value was 0.1 nM; for `Cc1nc(O[C@@H]2C[C@H]3CC[C@@H](C2)N3C)c(C(=O)N[C@@H]2CCCN(c3cc(-c4csc(C(C)O)c4)n4ncnc(N)c34)C2)s1` (stereo partly drawn) [Example 928, N-((3R)-1-(4-amino-7-(5-(1-hydroxyethyl)thiophen-3-yl)pyrrolo[2,1-f][1,2,4]triazin-5-yl)piperidin-3-yl)-2-methyl-4-(((1R,3s,5S)-8-methyl-8-azabicyclo[3.2.1]octan-3-yl)oxy)thiazole-5-carboxamide, TFA salt], 0.1 nM.
In the case of `Cc1nc(O[C@@H]2C[C@H]3CC[C@@H](C2)N3C2CC(O)C2)c(C(=O)N[C@@H]2CCCN(c3cc(-c4ccc(-n5cnnn5)c(F)c4)n4ncnc(N)c34)C2)s1` (stereo partly drawn) [Example 929, N—((R)-1-(4-amino-7-(3-fluoro-4-(1H-tetrazol-1-yl)phenyl)pyrrolo[2,1-f][11,2,4]triazin-5-yl)piperidin-3-yl)-4-(((1R,3s,5S)-8-(3-hydroxycyclobutyl)-8-azabicyclo[3.2.1]octan-3-yl)oxy)-2-methylthiazole-5-carboxamide TFA salt] it was 1 nM.
In the case of `Cc1nc(O[C@H]2CC[C@]3(CCCN3)CC2)c(C(=O)N[C@@H]2CCCN(c3cc(-c4ccc(C(N)=O)c(F)c4)n4ncnc(N)c34)C2)s1` [Example 930, 4-(((5S,8r)-1-azaspiro[4.5]decan-8-yl)oxy)-N—((R)-1-(4-amino-7-(4-carbamoyl-3-fluorophenyl)pyrrolo[2,1-f][1,2,4]triazin-5-yl)piperidin-3-yl)-2-methylthiazole-5-carboxamide, TFA salt] it was 1 nM.
`Cc1nc(O[C@H]2CC[C@]3(CCCN3C)CC2)c(C(=O)N[C@@H]2CCCN(c3cc(-c4ccc(C(N)=O)c(F)c4)n4ncnc(N)c34)C2)s1` [Example 931, N—((R)-1-(4-amino-7-(4-carbamoyl-3-fluorophenyl)pyrrolo[2,1-f][1,2,4]triazin-5-yl)piperidin-3-yl)-2-methyl-4-(((5S,8r)-1-methyl-1-azaspiro[4.5]decan-8-yl)oxy)thiazole-5-carboxamide, TFA salt] came in with an IC50 of 0.5 nM. Compared with the last compound, the IC50 is about 2-fold lower.
For `CNC(=O)c1ccc(-c2cc(N3CCC[C@@H](NC(=O)c4sc(C)nc4O[C@H]4CC[C@@H](N(C)C)CC4)C3)c3c(N)ncnn23)cc1F` [Example 932, N—((R)-1-(4-amino-7-(3-fluoro-4-(methylcarbamoyl)phenyl)pyrrolo[2,1-f][1,2,4]triazin-5-yl)piperidin-3-yl)-4-(((1s,4S)-4-(dimethylamino)cyclohexyl)oxy)-2-methylthiazole-5-carboxamide] the value was 3 nM.
The compound `Cc1cc(O[C@@H]2C[C@H]3CC[C@@H](C2)N3C)c(C(=O)N[C@@H]2CCCN(c3cc(-c4ccc(-n5cc(CCC#N)nn5)c(F)c4)n4ncnc(N)c34)C2)s1` [Example 933, N—((R)-1-(4-Amino-7-(4-(4-(2-cyanoethyl)-1H-1,2,3-triazol-1-yl)-3-fluorophenyl)pyrrolo[2,1-f][1,2,4]triazin-5-yl)piperidin-3-yl)-5-methyl-3-(((1R,3s,5S)-8-methyl-8-azabicyclo[3.2.1]octan-3-yl)oxy)thiophene-2-carboxamide] had an IC50 of 0.8 nM.
In the case of `Cc1nc(O[C@H]2CC[C@@](C)(N)CC2)c(C(=O)N[C@@H]2CCCN(c3cc(-c4ccc(-n5cnnn5)c(F)c4)n4ncnc(N)c34)C2)s1` [Example 934, 4-(((1s,4S)-4-Amino-4-methylcyclohexyl)oxy)-N—((R)-1-(4-amino-7-(3-fluoro-4-(1H-tetrazol-1-yl)phenyl)pyrrolo[2,1-f][1,2,4]triazin-5-yl)piperidin-3-yl)-2-methylthiazole-5-carboxamide], half-maximal inhibition (IC50) was put at 0.5 nM.
In turn, `Cc1nc(O[C@H]2CC[C@@H](N(C)C)CC2)c(C(=O)N[C@@H]2CCCN(c3cc(-c4ccc(C(N)=O)c(F)c4)n4ncnc(N)c34)C2)s1` [Example 937, N—((R)-1-(4-Amino-7-(4-carbamoyl-3-fluorophenyl)pyrrolo[2,1-f][1,2,4]triazin-5-yl)piperidin-3-yl)-4-(((1s,4S)-4-(dimethylamino)cyclohexyl)oxy)-2-methylthiazole-5-carboxamide] yielded an IC50 of 1 nM.
For `Cc1nc(O[C@H]2CC[C@@H](NC(C)C)C2)c(C(=O)N[C@@H]2CCCN(c3cc(-c4ccc(C(N)=O)c(F)c4)n4ncnc(N)c34)C2)s1` [Example 940, N—((R)-1-(4-Amino-7-(4-carbamoyl-3-fluorophenyl)pyrrolo[2,1-f][1,2,4]triazin-5-yl)piperidin-3-yl)-4-(((1S,3R)-3-(isopropylamino)cyclopentyl)oxy)-2-methylthiazole-5-carboxamide] the value was 3 nM; for `Cc1nc(OC2CCCC(NC(C)C)CCC2)c(C(=O)N[C@@H]2CCCN(c3cc(-c4ccc(C(N)=O)c(F)c4)n4ncnc(N)c34)C2)s1` (stereo partly drawn) [Example 942, (R)—N-(1-(4-Amino-7-(4-carbamoyl-3-fluorophenyl)pyrrolo[2,1-f][1,2,4]triazin-5-yl)piperidin-3-yl)-4-((5-(isopropylamino)cyclooctyl)oxy)-2-methylthiazole-5-carboxamide], 4 nM; for `CN(C)C1CC2(CC(Oc3cc(Cl)sc3C(=O)N[C@@H]3CCCN(c4cc(-c5ccc(C(N)=O)c(F)c5)n5ncnc(N)c45)C3)C2)C1` (stereo partly drawn) [Example 944, (R)—N-(1-(4-Amino-7-(4-carbamoyl-3-fluorophenyl)pyrrolo[2,1-f][1,2,4]triazin-5-yl)piperidin-3-yl)-5-chloro-3-((6-(dimethylamino)spiro[3.3]heptan-2-yl)oxy)thiophene-2-carboxamide], 1 nM.
In the case of `Cc1nc(O[C@H]2CC[C@@H](CNCC(C)(C)C)CC2)c(C(=O)N[C@@H]2CCCN(c3cc(-c4ccc(C(N)=O)c(F)c4)n4ncnc(N)c34)C2)s1` [Example 945, N—((R)-1-(4-Amino-7-(4-carbamoyl-3-fluorophenyl)pyrrolo[2,1-f][1,2,4]triazin-5-yl)piperidin-3-yl)-2-methyl-4-(((cis)-4-((neopentylamino)methyl)cyclohexyl)oxy)thiazole-5-carboxamide], half-maximal inhibition (IC50) required 4 nM.
`CCN1CC[C@@H](Oc2cc(C(F)F)sc2C(=O)N[C@@H]2CCCN(c3cc(-c4ccc(C(N)=O)c(F)c4)n4ncnc(N)c34)C2)CC1(C)C` [Example 947, N—((R)-1-(4-amino-7-(4-carbamoyl-3-fluorophenyl)pyrrolo[2,1-f][1,2,4]triazin-5-yl)piperidin-3-yl)-5-(difluoromethyl)-3-(((R)-1-ethyl-2,2-dimethylpiperidin-4-yl)oxy)thiophene-2-carboxamide] registered an IC50 of 1 nM.
For `N#Cc1ccc(-c2cc(N3CCC[C@@H](NC(=O)c4sc(Cl)cc4O[C@@H]4CN5CCC4CC5)C3)c3c(N)ncnn23)cn1` [Example 950, N—((R)-1-(4-Amino-7-(6-cyanopyridin-3-yl)pyrrolo[2,1-f][1,2,4]triazin-5-yl)piperidin-3-yl)-5-chloro-3-(((S)-quinuclidin-3-yl)oxy)thiophene-2-carboxamide], the midpoint of inhibition, the IC50, lay at 0.6 nM.
